A short description of experiment [1]: Inhibitory activity against Gamma-aminobutyric acid A (GABA-A) receptor. On the set-up: species or system Rattus norvegicus.
The species entered for another experiment is Cavia porcellus. The experiment in a line: In vitro inhibition against electrical field stimulated neuronal cholinergic contractions of guinea pig trachea. It is filed as functional.

SMILES strings stand for the structures. Where only a bound is given, the exact number is not on record here.

As a reminder, the IC50 is the concentration that inhibits the measured activity by half. One may read the IC30 as the concentration needed for an effect of 30%.

For the compound `NCC(CS(=O)O)c1ccc(Cl)cc1` (racemic), the 50% inhibitory concentration (IC50) in experiment [1] is > 100 µM. For the same compound, in the experiment listed under Cavia porcellus (Cavia porcellus, Trachea, read-out: IC30), the IC30 was found to be 22 µM.
Regarding `NCC(CS(=O)O)c1ccc(Cl)cc1` (single isomer, unassigned; (-)), the IC30 in the experiment listed under Cavia porcellus was 13.9 µM.

The values above are taken from ChEMBL document CHEMBL1128116, “Synthesis and resolution of -(aminomethyl)-4-chlorobenzeneethanesulfinic acid a potent gabaB receptor ligand” (Bioorg Med Chem Lett, 1995).
